US20210190799A1, “METHOD FOR DIAGNOSING LIVER DISEASES AND METHOD FOR SCREENING THERAPEUTIC AGENT FOR LIVER DISEASES USING CHANGES IN EXPRESSION OF TM4SF5 PROTEIN” (SEOUL NATIONAL UNIVERSITY R&DB FOUNDATION, priority 2017, published 2021)

Columns and labels:
[1] = system: STAT3 protein; assay: Western blotting of separated liver tissue treated with laminin; format: cell-based, mouse; settings: FIG. 26B
Description: Particularly, a lysis buffer [50 mM Tris-HCl (pH 7.4), 1% NP40, 0.25% sodium dioxycholate, 150 mM NaCl, 1 mM EDTA], SDS (sodium dodecyl sulfate), Na3O4V and protease inhibitor cocktail (GenDepot) were added to the obtained liver tissue, which was left at 4° C. for 15 minutes to lyse the tissue. The lysate was centrifuged for 30 minutes under the conditions of 13,000 rpm and 4° C. to obtain a supernatant. The proteins present in the supernatant were quantified using BCA reagent (Thermo Scientifics). 4× sample buffer [4 ml of 100% glycerol, 2.4 ml of Tris-HCl (pH 6.8), 0.8 g of SDS, 4 mg of brominated phenol blue, 0.4 ml of β-mercaptoethanol and 3.1 ml of H2O, final volume: 10 ml] was added thereto, which was boiled at 100° C. for 5 minutes. SDS-PAGE was performed, and the proteins were transferred to a nitrocellulose membrane (Whatman). The membrane was pretreated in a solution containing 5% skim milk for 1 hour, and reacted with the antibodies against laminin (Abcam, UK), ACC1 (Cell Signalling, USA), SREBP1 precursor (Santa cruz, USA), mature SREBP1 (Santa cruz, USA), MTP (Santa cruz, USA), PPARα (Santa cruz, USA), pY^706STAT3 (Millipore, USA), STAT3 (Santa cruz, USA), α-tubulin (Sigma, USA) and TM4SF5 (J Clin Invest. 2008 April; 118(4): 1354-66) as the primary antibodies at 4° C. for 15 hours. […]

[2] = system: TM4SF5 gene; assay: TM4SF5 shRNA in differentiated 3T3-L1 adipocytes (oil red O staining, real-time PCR); format: cell-based, mouse
Description: To confirm whether the fat production was suppressed when the expression of TM4SF5 protein was suppressed in adipocytes, oil red O staining was performed.
First, mouse 3T3-L1 adipocyte progenitor cells were prepared by culturing in DMEM supplemented with 10% NBCS (Gibco, 16010159) and 1% penicillin/streptomycin. The prepared cells were distributed in a 6-well plate at the density of 1×10^5/well.
After 4 days of the distribution, when the progenitor cells were full in the wells, the cells were further cultured for 48 hours. Then, the medium was replaced with the adipocyte differentiation medium (MDI medium containing 10% FBS) supplemented with 1 μM dexamethasone, 0.5 mM IBMX (3-Isobutyl-1-methylxanthine) and 10 μg/m ? of insulin (Sigma, USA). After culturing the cells for 2 days, the medium was replaced with DMEM supplemented with 10% FBS and 10 μg/m ? of insulin. After replacing with the medium, the cells were cultured for 10 days, and then cultured using DMEM supplemented with 10% FBS and 1% penicillin/streptomycin to obtain differentiated adipocytes. The adipocytes were transfected with TM4SF5 shRNA (shTM4SF5, 5′-[…]-3′, SEQ. ID. NO: 35) using lipofectamine 3000.
Whether the expression of the fat-related gene changed when the expression of TM4SF5 gene was suppressed was confirmed by the following method. […]

[3] = system: TM4SF5 protein; assay: shTM4SF5 in hepatocytes of the liver disease model mouse, Western blotting; format: cell-based; settings: FIG. 25
From the text: First, hepatocytes were obtained from the isolated liver tissue as described above. The expressions of TM4SF5 and STAT3 proteins in the obtained hepatocytes were suppressed by transfecting the cells with shTM4SF5 or silencing STAT3 [On-Target plus SMART pool siRNA (Thermo)], and then the expression changes of laminin were confirmed by Western blotting as described above.

Substance	expression level of STAT3 protein [1]	production of fat, oil red O staining ([2]; FIG. 6A)	expressions of Pparγ, CD36, Fasn, Srebp1 and Fabp1 genes ([2]; FIG. 6B)	expression of laminin protein [3]
laminin	not changed			
shTM4SF5: TM4SF5 shRNA, 5′-CCTGGAATGTGACGCTCTTCTCGCTGCTG-3′, SEQ. ID. NO: 35 (listed as DNA, chemistry not fully specified)		inhibited	suppressed	suppressed
